In patent US10670605B2, “Cysteine reactive probes and uses thereof” (The Scripps Research Institute, priority 2015, dated 2020):

Assays:
Assay in all cases: Competitive isoTOP-ABPP in situ (fragment-treated cells)
Assay type in all cases: cell-based
[1] = target: T1, cysteines in MDA-MB-231 and Ramos cells (Homo sapiens, UniProt P24752)
T1 sequence (P24752 34-427): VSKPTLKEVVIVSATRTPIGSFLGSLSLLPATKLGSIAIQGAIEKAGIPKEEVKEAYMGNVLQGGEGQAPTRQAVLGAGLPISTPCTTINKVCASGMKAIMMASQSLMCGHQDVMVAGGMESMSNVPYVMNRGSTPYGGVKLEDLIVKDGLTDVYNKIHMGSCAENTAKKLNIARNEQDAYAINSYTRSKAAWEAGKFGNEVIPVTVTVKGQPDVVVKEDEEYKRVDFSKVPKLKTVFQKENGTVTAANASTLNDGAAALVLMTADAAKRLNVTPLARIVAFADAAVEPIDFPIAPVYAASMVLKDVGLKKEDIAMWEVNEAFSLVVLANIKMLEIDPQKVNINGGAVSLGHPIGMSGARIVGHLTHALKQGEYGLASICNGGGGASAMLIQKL

[2] = target: cysteines in MDA-MB-231 and Ramos cells (Homo sapiens, UniProt P12268)
[3] = target: T2, cysteines in MDA-MB-231 and Ramos cells (Homo sapiens, UniProt Q96S55)
T2 sequence (Q96S55 1-665): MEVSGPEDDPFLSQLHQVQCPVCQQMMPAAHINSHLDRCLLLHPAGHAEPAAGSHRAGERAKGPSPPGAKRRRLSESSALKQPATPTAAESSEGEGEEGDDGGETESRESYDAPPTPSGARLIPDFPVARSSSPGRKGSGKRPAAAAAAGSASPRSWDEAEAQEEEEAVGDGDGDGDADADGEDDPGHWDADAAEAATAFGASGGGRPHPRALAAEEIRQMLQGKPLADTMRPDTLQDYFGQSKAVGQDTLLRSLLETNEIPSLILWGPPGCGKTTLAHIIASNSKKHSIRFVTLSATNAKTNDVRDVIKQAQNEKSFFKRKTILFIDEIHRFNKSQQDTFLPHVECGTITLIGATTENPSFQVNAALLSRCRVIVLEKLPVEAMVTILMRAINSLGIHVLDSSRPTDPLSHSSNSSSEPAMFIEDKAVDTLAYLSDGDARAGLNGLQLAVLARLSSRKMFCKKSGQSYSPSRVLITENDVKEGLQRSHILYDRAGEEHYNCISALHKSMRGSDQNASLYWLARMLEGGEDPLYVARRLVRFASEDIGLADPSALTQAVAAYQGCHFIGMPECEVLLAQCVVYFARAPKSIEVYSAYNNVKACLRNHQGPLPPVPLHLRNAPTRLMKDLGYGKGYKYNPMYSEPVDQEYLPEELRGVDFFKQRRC

[4] = target: cysteines in MDA-MB-231 and Ramos cells (Homo sapiens, UniProt Q8TAQ2); details: for isoTOP-ABPP ratio Q8TAQ2_C145: 200 μM, insitu, 231
Chain of cysteines in MDA-MB-231 and Ramos cells (Homo sapiens, UniProt Q8TAQ2) (Q8TAQ2 whole entry): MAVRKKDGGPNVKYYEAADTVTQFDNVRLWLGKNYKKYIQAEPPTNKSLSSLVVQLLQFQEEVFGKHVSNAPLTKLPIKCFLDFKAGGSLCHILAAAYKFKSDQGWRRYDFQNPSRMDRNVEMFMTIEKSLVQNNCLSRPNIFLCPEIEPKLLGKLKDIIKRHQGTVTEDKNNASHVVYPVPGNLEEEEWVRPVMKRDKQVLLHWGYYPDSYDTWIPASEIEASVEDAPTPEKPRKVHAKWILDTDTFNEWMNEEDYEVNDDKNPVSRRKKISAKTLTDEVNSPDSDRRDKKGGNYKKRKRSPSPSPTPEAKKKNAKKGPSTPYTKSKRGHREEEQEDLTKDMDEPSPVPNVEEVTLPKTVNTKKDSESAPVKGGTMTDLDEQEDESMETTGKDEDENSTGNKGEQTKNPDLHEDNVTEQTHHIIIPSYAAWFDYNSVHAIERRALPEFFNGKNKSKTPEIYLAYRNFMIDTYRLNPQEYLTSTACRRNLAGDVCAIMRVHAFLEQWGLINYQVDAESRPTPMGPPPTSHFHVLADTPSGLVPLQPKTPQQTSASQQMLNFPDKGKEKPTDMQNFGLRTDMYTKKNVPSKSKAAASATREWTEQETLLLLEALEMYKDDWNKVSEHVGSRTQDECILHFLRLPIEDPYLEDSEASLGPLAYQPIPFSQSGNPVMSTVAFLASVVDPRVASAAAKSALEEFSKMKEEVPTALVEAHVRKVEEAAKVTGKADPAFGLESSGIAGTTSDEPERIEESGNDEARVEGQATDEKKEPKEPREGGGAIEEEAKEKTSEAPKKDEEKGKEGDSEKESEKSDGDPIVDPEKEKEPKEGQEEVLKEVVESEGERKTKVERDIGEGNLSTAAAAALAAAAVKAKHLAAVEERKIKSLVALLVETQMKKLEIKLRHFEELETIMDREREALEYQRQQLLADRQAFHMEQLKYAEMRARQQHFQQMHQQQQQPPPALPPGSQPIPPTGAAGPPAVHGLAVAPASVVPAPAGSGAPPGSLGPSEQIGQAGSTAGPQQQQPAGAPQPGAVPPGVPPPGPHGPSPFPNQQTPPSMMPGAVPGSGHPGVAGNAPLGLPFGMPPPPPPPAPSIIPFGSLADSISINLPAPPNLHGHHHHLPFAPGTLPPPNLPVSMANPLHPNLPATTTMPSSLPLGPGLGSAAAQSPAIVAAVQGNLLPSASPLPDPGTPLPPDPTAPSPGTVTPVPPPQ

[5] = target: T3, cysteines in MDA-MB-231 and Ramos cells (Homo sapiens, UniProt Q9BQ69)
T3 sequence (Q9BQ69 1-325): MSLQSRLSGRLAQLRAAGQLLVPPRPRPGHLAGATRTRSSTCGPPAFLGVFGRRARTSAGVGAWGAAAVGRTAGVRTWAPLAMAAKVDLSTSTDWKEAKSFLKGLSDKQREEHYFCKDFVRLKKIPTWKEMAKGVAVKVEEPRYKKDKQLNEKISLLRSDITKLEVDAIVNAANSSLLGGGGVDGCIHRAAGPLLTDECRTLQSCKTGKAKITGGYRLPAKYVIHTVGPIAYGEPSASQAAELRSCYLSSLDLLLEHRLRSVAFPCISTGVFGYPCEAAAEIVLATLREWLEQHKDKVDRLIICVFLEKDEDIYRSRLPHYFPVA

[6] = target: T4, cysteines in MDA-MB-231 and Ramos cells (Homo sapiens, UniProt P51946); details: for isoTOP-ABPP ratio P51946_C244: 200 μM, insitu
T4 sequence (P51946 1-323): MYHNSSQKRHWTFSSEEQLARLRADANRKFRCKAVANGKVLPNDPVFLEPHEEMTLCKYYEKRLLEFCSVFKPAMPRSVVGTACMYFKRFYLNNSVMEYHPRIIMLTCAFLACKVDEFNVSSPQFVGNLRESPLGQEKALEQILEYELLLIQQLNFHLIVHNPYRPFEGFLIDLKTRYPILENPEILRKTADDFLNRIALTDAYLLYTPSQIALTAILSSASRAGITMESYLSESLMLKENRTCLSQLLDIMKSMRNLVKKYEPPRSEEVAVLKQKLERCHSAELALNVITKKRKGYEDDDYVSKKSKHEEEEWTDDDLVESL

Row | Compound | isoTOP-ABPP ratio P24752_C119 ([1]; 200 μM, insitu, 231) | isoTOP-ABPP ratio P24752_C413 ([1]; 200 μM, insitu, 231) | isoTOP-ABPP ratio, P24752_C126 ([1]; 200 μM, insitu, 231) | isoTOP-ABPP ratio P12268_C140 ([2]; 200 μM, insitu, 231) | isoTOP-ABPP ratio P12268_C331 ([2]; 200 μM, insitu, 231) | isoTOP-ABPP ratio Q96S55_C272 ([3]; 200 μM, insitu, 231) | isoTOP-ABPP ratio Q8TAQ2_C145 [4] | isoTOP-ABPP ratio Q9BQ69_C186 ([5]; 200 μM, insitu, 231) | isoTOP-ABPP ratio, P24752_C196 ([1]; 200 μM, insitu, 231) | isoTOP-ABPP ratio P51946_C244 [6]; 231 | also measured
1 | Cc1ccc(C=C(C#N)C(=O)NCCN2CCOCC2)cc1 [compound 41] | 1.9 | 0.9 | 0.8 | 0.7 | 0.8 | 0.8 | 1.2 | 1.2 | 0.9 | 1.2 | 
2 | O=C(CCl)NC(=O)NC12CC3CC(CC(C3)C1)C2 [compound 12] | 4.1 | 9.9 | 5.8 | 1.2 |  | 2.4 |  | 2.7 | 4.6 | 1.3 | 
3 | O=C(CCl)N1CCC(Cc2ccccc2)CC1 [compound 9] |  |  |  |  |  |  |  |  |  |  | isoTOP-ABPP reactivity Q9BQ69_C186 MACROD1 ([5]; 200 μM, insitu, 231): 1.2; isoTOP-ABPP reactivity P24752_C119 ACAT1 ([1]; 200 μM, insitu, 231): 3.8; isoTOP-ABPP reactivity P24752_C126 ACAT1 ([1]; 200 μM, insitu, 231): 14.1; isoTOP-ABPP reactivity P24752_C196 ACAT1 ([1]; 200 μM, insitu, 231): 5.8; isoTOP-ABPP reactivity P24752_C413 ACAT1 ([1]; 200 μM, insitu, 231): 19.5; isoTOP-ABPP reactivity P12268_C140 IMPDH2 ([2]; 200 μM, insitu, 231): 1.2; isoTOP-ABPP reactivity P12268_C331 IMPDH2 ([2]; 200 μM, insitu, 231): 1.3; isoTOP-ABPP reactivity Q96S55_C272 WRNIP1 ([3]; 200 μM, insitu, 231): 4.5
4 | COc1ccc(C2CC(c3cccs3)=NN2C(=O)CCl)cc1 (centres unmarked) [compound 4] |  |  |  |  |  |  |  |  |  |  | isoTOP-ABPP reactivity Q9BQ69_C186 MACROD1 ([5]; 100 μM in situ 231): 1.8; isoTOP-ABPP reactivity P24752_C119 ACAT1 ([1]; 100 μM in situ 231): 3.0; isoTOP-ABPP reactivity P24752_C126 ACAT1 ([1]; 100 μM in situ 231): 2.8; isoTOP-ABPP reactivity P24752_C196 ACAT1 ([1]; 100 μM in situ 231): 3.5; isoTOP-ABPP reactivity P24752_C413 ACAT1 ([1]; 100 μM in situ 231): 4.5; isoTOP-ABPP reactivity P51946_C244 CCNH ([6]; 100 μM in situ 231): 5.3; isoTOP-ABPP reactivity P12268_C140 IMPDH2 ([2]; 100 μM in situ 231): 1.0; isoTOP-ABPP reactivity P12268_C331 IMPDH2 ([2]; 100 μM in situ 231): 4.6; isoTOP-ABPP reactivity Q96S55_C272 WRNIP1 ([3]; 100 μM in situ 231): 3.7; isoTOP-ABPP reactivity Q8TAQ2_C145 SMARCC2 ([4]; 100 μM in situ 231): 3.1
5 | O=C(CCl)NC12CC3CC(CC(C3)C1)C2 [compound 21] | 1.6 | 1.5 | 1.4 | 0.6 | 0.8 | 1.3 | 1.6 | 1.4 | 1.5 | 1.4 | 

Now from value to compound, other results behind:

Row | isoTOP-ABPP ratio P24752_C119 ([1]; 200 μM, insitu, 231) | isoTOP-ABPP ratio P24752_C413 ([1]; 200 μM, insitu, 231) | isoTOP-ABPP ratio, P24752_C126 ([1]; 200 μM, insitu, 231) | isoTOP-ABPP ratio P12268_C140 ([2]; 200 μM, insitu, 231) | isoTOP-ABPP ratio P12268_C331 ([2]; 200 μM, insitu, 231) | isoTOP-ABPP ratio Q96S55_C272 ([3]; 200 μM, insitu, 231) | isoTOP-ABPP ratio Q8TAQ2_C145 [4] | isoTOP-ABPP ratio Q9BQ69_C186 ([5]; 200 μM, insitu, 231) | isoTOP-ABPP ratio, P24752_C196 ([1]; 200 μM, insitu, 231) | isoTOP-ABPP ratio P51946_C244 [6]; 231 | Compound | also measured
6 | 1.0 | 1.0 | 1.2 | 0.6 | 0.8 | 0.5 | 0.9 |  |  |  | COc1ccccc1OCCNC(=O)CCl [compound 28] | 
7 | 2.1 | 3.5 |  | 0.7 |  | 0.7 | 1.1 | 1.4 |  | 1.0 | O=C(CCl)NCCc1c[nH]c2ccccc12 [compound 13] | isoTOP-ABPP ratio P24752_C119 ([1]; 200 μM, insitu, ramos): 2.8; isoTOP-ABPP ratio P24752_C413 ([1]; 200 μM, insitu, ramos): 20.0; isoTOP-ABPP ratio P51946_C244 ([6]; ramos): 1.2; isoTOP-ABPP ratio P12268_C331 ([2]; 200 μM, insitu, ramos): 1.4
8 | 0.7 | 1.1 |  | 1.0 |  | 0.9 | 1.2 | 1.2 |  | 0.7 | O=C(CCl)Nc1cccc2ncccc12 [compound 51] | 
